{"source": "paper PMC9044946", "about": "(Journal of Virology, 2022)", "key": {"[1]": {"system": "TMPRSS2-induced production of S2′", "assay_type": "cell-based", "conditions": "acceptor cells ACE2 and TMPRSS2, 120 μM"}, "[2]": {"system": "S-mediated cell-to-cell fusion", "assay_type": "cell-based", "conditions": "acceptor cells ACE2 plus TMPRSS2, camostat 120 μM"}, "[3]": {"conditions": "orally administered three times a day; cited from earlier work"}}, "note": "Counter-ions that a name gives are not always drawn."}
{"smiles": "CN(C)C(=O)COC(=O)Cc1ccc(OC(=O)c2ccc(NC(=N)N)cc2)cc1", "note": "[camostat]", "values": [{"measurement": "Effect on enhanced TMPRSS2-induced production of S2′ with WT S", "setting": "[1]", "result": "eliminated"}, {"measurement": "Effect on TMPRSS2-enhanced fusion with μAS1/S2", "setting": "[2]", "result": "largely attenuated"}, {"measurement": "Effect on TMPRSS2-reduced fusion with WT S", "setting": "[2]", "result": "completely restored"}]}
{"smiles": "CN(C)C(=O)COC(=O)Cc1ccc(OC(=O)c2ccc(NC(=N)N)cc2)cc1", "note": "[camostat mesylate]", "values": [{"measurement": "Effect on COVID-19 symptoms", "setting": "[3]", "result": "did not ameliorate COVID-19 symptoms"}]}
